Results published in PMC12957839, “Antiviral activity and mechanism of purine morpholine nucleoside analogues incorporating a sulfonamide fragment” (Journal of Advanced Research, 2025).
Values after ≈ are worked out from the molar mass of the structure shown.

Columns and labels:
Format in all cases: in vivo, Pepper mild mottle virus (PMMoV)
[1] = test system: PMMoV; assay: Antiviral activity assay against PMMoV, protective activity; parameters: Protective activity: concentration or dose not given beside the values; settings: against PMMoV, average of three replicates, ± standard deviation; for EC50: Pepper mild mottle virus, read-out: EC50 of protective activity
Experimental: (§1) Virions were isolated and extracted from leaves of N. benthamiana infected with PMMoV referring to the method recorded in the literature. And the inhibiting activities of C1–C38 against PMMoV were assessed with reference to the literature as well [26, 34].

[2] = test system: PMMoV; assay: Antiviral activity assay against PMMoV, inactivating activity; settings: against PMMoV, average of three replicates, ± standard deviation; for pest or weed control at 500 µg/mL / EC50: Pepper mild mottle virus; for pest or weed control at 500 µg/mL: read-out: Inactivating activity; for EC50: read-out: EC50 of inactivating activity
Experimental: as §1

[3] = test system: PMMoV; assay: Antiviral activity assay against PMMoV, curative activity; parameters: Curative activity: concentration or dose not given beside the values; settings: against PMMoV, average of three replicates, ± standard deviation; for EC50: Pepper mild mottle virus, read-out: EC50 of curative activity
Experimental: as §1

SMILES | EC50 [1] | Protective activity [1] | pest or weed control at 500 µg/mL ([2]; at 500 µg/mL) | EC50 [2] | EC50 [3] | Curative activity [3] | Inactivating activity ([2]; at 500 µg/mL)
CC(=O)OCC1OC(n2cnc3c(N4CCOCC4)nc(F)nc32)C(NS(=O)(=O)c2ccccc2)C(OC(C)=O)C1OC(C)=O (stereo not shown) [C19] | 159 ± 11.8 µg/mL (≈ 245 µM) | 59.8 ± 3.6% | 69.7 ± 1.9% | 25.5 ± 4 µg/mL (≈ 39.2 µM) | 36.7 ± 3.7 µg/mL (≈ 56.4 µM) | 69.5 ± 4.7% | –
O=S(=O)(NC1C(O)C(O)C(CO)OC1n1cnc2c(N3CCOCC3)nc(F)nc21)c1ccc(OC(F)(F)F)cc1 (stereo not shown) [C38] | 474 ± 27.7 µg/mL (≈ 779 µM) | 46.5 ± 1.0% | 51.6 ± 0.5% | 421 ± 7.4 µg/mL (≈ 692 µM) | 442 ± 12.6 µg/mL (≈ 726 µM) | 51.54 ± 0.3% | –
CC(=O)OCC1OC(n2cnc3c(N4CCOCC4)ncnc32)C(NS(=O)(=O)c2ccc(Br)cc2)C(OC(C)=O)C1OC(C)=O (stereo not shown) [C15] | 103 ± 6.4 µg/mL (≈ 145 µM) | 62.5 ± 3.3% | 47.7 ± 0.69% | 593 ± 13.7 µg/mL (≈ 833 µM) | 61 ± 5.4 µg/mL (≈ 85.7 µM) | 65.6 ± 3.4% | –
CC(=O)OCC1OC(n2cnc3c(N4CCOCC4)ncnc32)C(NS(=O)(=O)c2ccccc2Br)C(OC(C)=O)C1OC(C)=O (stereo not shown) [C17] | 140 ± 9.5 µg/mL (≈ 197 µM) | 61.0 ± 5.3% | 59.9 ± 4% | 84 ± 2.8 µg/mL (≈ 118 µM) | 16.1 ± 2.7 µg/mL (≈ 22.6 µM) | 70.5 ± 3.8% | –
Cc1ccc(S(=O)(=O)NC2C(O)C(O)C(CO)OC2n2cnc3c(N4CCOCC4)nc(Cl)nc32)cc1 (stereo not shown) [C36] | 562 ± 11.1 µg/mL (≈ 1010 µM) | 52.2 ± 0.8% | 50.6 ± 3.6% | 313 ± 7.1 µg/mL (≈ 564 µM) | 283 ± 10.5 µg/mL (≈ 510 µM) | 57.3 ± 1.1% | –
CC(=O)OCC1OC(n2cnc3c(N4CCOCC4)ncnc32)C(NS(=O)(=O)c2cccc(C(F)(F)F)c2)C(OC(C)=O)C1OC(C)=O (stereo not shown) [C29] | 88.4 ± 6.3 µg/mL (≈ 126 µM) | 64.9 ± 4.7% | 53.4 ± 0.8% | 353 ± 18.7 µg/mL (≈ 504 µM) | 64.8 ± 3.1 µg/mL (≈ 92.5 µM) | 69.8 ± 4.3% | –
CC(=O)OCC1OC(n2cnc3c(N4CCOCC4)nc(F)nc32)C(NS(=O)(=O)c2ccc(OC(F)(F)F)cc2)C(OC(C)=O)C1OC(C)=O (stereo not shown) [C34] | 53.8 ± 4.8 µg/mL (≈ 73.2 µM) | 65.6 ± 4.5% | 72.7 ± 2% | 53 ± 2.2 µg/mL (≈ 72.1 µM) | 33.8 ± 4.6 µg/mL (≈ 46 µM) | 67.4 ± 2.0% | –
CC(=O)OCC1OC(n2cnc3c(N4CCOCC4)nc(N)nc32)C(NS(=O)(=O)c2c(C)cc(C)cc2C)C(OC(C)=O)C1OC(C)=O (stereo not shown) [C22] | 38 ± 3.5 µg/mL (≈ 55.1 µM) | 61.2 ± 1.6% | 61.3% | 13.7 ± 1.6 µg/mL (≈ 19.9 µM) | 26.2 ± 1.3 µg/mL (≈ 38 µM) | 67.6 ± 1.9% | 61.3 ± 4.5%
CC(=O)OCC1OC(n2cnc3c(N4CCOCC4)ncnc32)C(NS(=O)(=O)c2cccc(Br)c2)C(OC(C)=O)C1OC(C)=O (stereo not shown) [C16] | 664 ± 12.4 µg/mL (≈ 933 µM) | 45.3 ± 2.5% | 55.9 ± 1.5% | 171 ± 9.6 µg/mL (≈ 241 µM) | 48.5 ± 3.1 µg/mL (≈ 68.2 µM) | 58.9 ± 4.2% | –
CC(=O)OCC1OC(n2cnc3c(N4CCOCC4)nc(F)nc32)C(NS(=O)(=O)c2ccc(F)cc2)C(OC(C)=O)C1OC(C)=O (stereo not shown) [C31] | 99.6 ± 3.8 µg/mL (≈ 149 µM) | 56.0 ± 1.9% | 68.5 ± 1.7% | 50 ± 2 µg/mL (≈ 74.8 µM) | 29.6 ± 1.1 µg/mL (≈ 44.3 µM) | 61.9 ± 3.3% | –
CC(=O)OCC1OC(n2cnc3c(N4CCOCC4)nc(Cl)nc32)C(NS(=O)(=O)c2ccccc2)C(OC(C)=O)C1OC(C)=O (stereo not shown) [C20] | 292 ± 17.6 µg/mL (≈ 438 µM) | 54.8 ± 2.8% | 72 ± 4.2% | 28.5 ± 4.2 µg/mL (≈ 42.7 µM) | 30.1 ± 3.5 µg/mL (≈ 45.1 µM) | 74.8 ± 4.8% | –
CC(=O)OCC1OC(n2cnc3c(N4CCOCC4)ncnc32)C(NS(=O)(=O)c2cccc([N+](=O)[O-])c2)C(OC(C)=O)C1OC(C)=O (stereo not shown) [C5] | 2280 ± 24.8 µg/mL (≈ 3370 µM) | 43.3 ± 2.3% | 47.5 ± 1.4% | 622 ± 14.7 µg/mL (≈ 918 µM) | 63.8 ± 5.3 µg/mL (≈ 94.1 µM) | 60.3 ± 2.5% | –
CC(=O)OCC1OC(n2cnc3c(N4CCOCC4)ncnc32)C(NS(=O)(=O)c2ccc(Cl)cc2)C(OC(C)=O)C1OC(C)=O (stereo not shown) [C9] | 267 ± 8.6 µg/mL (≈ 401 µM) | 58.9 ± 4.0% | 65.8 ± 3.9% | 103 ± 9.1 µg/mL (≈ 155 µM) | 33.3 ± 1.2 µg/mL (≈ 49.9 µM) | 70.9 ± 4.9% | –
CC(=O)OCC1OC(n2cnc3c(N4CCOCC4)nc(Cl)nc32)C(NS(=O)(=O)c2ccc(C(F)(F)F)cc2)C(OC(C)=O)C1OC(C)=O (stereo not shown) [C27] | 534 ± 14.9 µg/mL (≈ 726 µM) | 45.0 ± 3.4% | 62.4 ± 4.7% | 184 ± 10 µg/mL (≈ 251 µM) | 51.1 ± 3.6 µg/mL (≈ 69.5 µM) | 69.9 ± 3.6% | –
COc1ccc(S(=O)(=O)NC2C(OC(C)=O)C(OC(C)=O)C(COC(C)=O)OC2n2cnc3c(N4CCOCC4)nc(F)nc32)cc1 (stereo not shown) [C13] | 596 ± 10.9 µg/mL (≈ 876 µM) | 46.5 ± 3.4% | 47.3 ± 2.7% | 458.1 ± 3.3 µg/mL (≈ 673 µM) | 20.9 ± 3 µg/mL (≈ 30.7 µM) | 72.5 ± 2.6% | –
CC(=O)OCC1OC(n2cnc3c(N4CCOCC4)ncnc32)C(NS(=O)(=O)c2ccc(F)cc2)C(OC(C)=O)C1OC(C)=O (stereo not shown) [C30] | 262 ± 10.3 µg/mL (≈ 402 µM) | 58.9 ± 3.8% | 61.7 ± 4.6% | 20.4 ± 4.9 µg/mL (≈ 31.4 µM) | 60.2 ± 3.1 µg/mL (≈ 92.5 µM) | 67.9 ± 3.3% | –
CC(=O)OCC1OC(n2cnc3c(N4CCOCC4)ncnc32)C(NS(=O)(=O)c2ccccc2)C(OC(C)=O)C1OC(C)=O (stereo not shown) [C18] | 994 ± 11.2 µg/mL (≈ 1570 µM) | 41.9 ± 2.9% | 61.3 ± 2.8% | 134 ± 8.5 µg/mL (≈ 212 µM) | 24.7 ± 1.3 µg/mL (≈ 39 µM) | 63.5 ± 2.5% | –
CC(=O)OCC1OC(n2cnc3c(N4CCOCC4)ncnc32)C(NS(=O)(=O)c2ccc(C#N)cc2)C(OC(C)=O)C1OC(C)=O (stereo not shown) [C7] | 793 ± 17.1 µg/mL (≈ 1210 µM) | 44.7 ± 1.4% | 36.6 ± 3.2% | 2415 ± 17.2 µg/mL (≈ 3670 µM) | 281 ± 10.3 µg/mL (≈ 427 µM) | 55.8 ± 1.3% | –
CC(=O)OCC1OC(n2cnc3c(N4CCOCC4)nc(Cl)nc32)C(NS(=O)(=O)c2ccc([N+](=O)[O-])cc2)C(OC(C)=O)C1OC(C)=O (stereo not shown) [C4] | 475 ± 15.8 µg/mL (≈ 667 µM) | 52.6 ± 2.0% | 64.1 ± 3.5% | 141 ± 12.1 µg/mL (≈ 198 µM) | 219 ± 9 µg/mL (≈ 308 µM) | 61.2 ± 3.7% | –
CC(=O)OCC1OC(n2cnc3c(N4CCOCC4)nc(F)nc32)C(NS(=O)(=O)c2ccc(C(F)(F)F)cc2)C(OC(C)=O)C1OC(C)=O (stereo not shown) [C28] | 633 ± 13.6 µg/mL (≈ 881 µM) | 42.9 ± 0.7% | 44 ± 4.3% | 576 ± 14.9 µg/mL (≈ 801 µM) | 45.4 ± 3 µg/mL (≈ 63.2 µM) | 69.4 ± 4.9% | –
CC(=O)OCC1OC(n2cnc3c(N4CCOCC4)ncnc32)C(NS(=O)(=O)c2ccccc2[N+](=O)[O-])C(OC(C)=O)C1OC(C)=O (stereo not shown) [C6] | 358 ± 12.3 µg/mL (≈ 528 µM) | 52.0 ± 2.3% | 60.8 ± 1.9% | 182 ± 7.8 µg/mL (≈ 268 µM) | 132 ± 9.4 µg/mL (≈ 194 µM) | 67.0 ± 4.9% | –
CC(=O)OCC1OC(n2cnc3c(N4CCOCC4)ncnc32)C(NS(=O)(=O)c2cccc(OC(F)(F)F)c2)C(OC(C)=O)C1OC(C)=O (stereo not shown) [C35] | 33.9 ± 0.5 µg/mL (≈ 47.3 µM) | 68.9 ± 2.0% | 49.1 ± 1.6% | 457 ± 10.2 µg/mL (≈ 638 µM) | 17 ± 1.4 µg/mL (≈ 23.7 µM) | 67.9 ± 3.3% | –
